According to patent US6479435B1, “Diaryl ethers and processes for their preparation and herbicidal and desiccant compositions containing them” (ISK Americas Incorporated, priority 1997, dated 2002):

Key:
Assay type in all cases: in vivo
[1] = system: Johnsongrass (Sorghum halepense, SORHA); test: Pre-emerge greenhouse herbicide test, phytotoxicity rating; conditions: 14 days after application, rating scale 0-100
Summary of the method: (§1)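 Visual 0–100 injury rating (100 = all plants dead) taken 14 days after treatment. Rates of 125–1000 g ai/ha in acetone, 187 l/ha, were sprayed onto soil one day post-sowing; pots were surface-watered to incorporate, then bottom-watered.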

[2] = system: barnyardgrass (Echinochloa crusgalli, ECHCG); test: as above; conditions: 14 days after application, rating scale 0-100
Summary of the method: as §1

[3] = system: common ragweed (Ambrosia artemisiifolia L., AMBEL); test: as above; conditions: 14 days after application, rating scale 0-100
Summary of the method: as §1

[4] = system: green foxtail (Setaria viridis, SETVI); test: as above; conditions: 14 days after application, rating scale 0-100
Summary of the method: as §1

[5] = system: ivyleaf morningglory (Ipomoea hederacea, IPOHE); test: as above; conditions: 14 days after application, rating scale 0-100
Summary of the method: as §1

[6] = system: lambsquarters (Chenopodium album, CHEAL); test: as above; conditions: 14 days after application, rating scale 0-100
Summary of the method: as §1

[7] = system: large crabgrass (Digitaria sanguinalis, DIGSA); test: as above; conditions: 14 days after application, rating scale 0-100
Summary of the method: as §1

[8] = system: redroot pigweed (Amaranthus retroflexus, AMARE); test: as above; conditions: 14 days after application, rating scale 0-100
Summary of the method: as §1

[9] = system: sicklepod (Cassia obtusifolia, CASOB); test: as above; conditions: 14 days after application, rating scale 0-100
Summary of the method: as §1

[10] = system: velvetleaf (Abutilon theophrasti, ABUTH); test: as above; conditions: 14 days after application, rating scale 0-100
Summary of the method: as §1

[11] = system: common ragweed (Ambrosia artemisiifolia L., AMBEL); test: Post-emerge greenhouse herbicide test, phytotoxicity rating; conditions: 14 days after application
Summary of the method: (§2)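 Scores use a 0 (no damage) to 100 (complete kill) scale, taken 14 days after a foliar spray. Acetone solutions with 0.25% v/v non-ionic surfactant were applied by track sprayer at 187 l/ha and 63-1000 g ai/ha to bottom-watered 2-3 leaf plants.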

[12] = system: Johnsongrass (Sorghum halepense, SORHA); test: as above; conditions: 14 days after application
Summary of the method: as §2

[13] = system: barnyardgrass (Echinochloa crusgalli, ECHCG); test: as above; conditions: 14 days after application
Summary of the method: as §2

[14] = system: green foxtail (Setaria viridis, SETVI); test: as above; conditions: 14 days after application
Summary of the method: as §2

[15] = system: ivyleaf morningglory (Ipomoea hederacea, IPOHE); test: as above; conditions: 14 days after application
Summary of the method: as §2

[16] = system: lambsquarters (Chenopodium album, CHEAL); test: as above; conditions: 14 days after application
Summary of the method: as §2

[17] = system: large crabgrass (Digitaria sanguinalis, DIGSA); test: as above; conditions: 14 days after application
Summary of the method: as §2

[18] = system: redroot pigweed (Amaranthus retroflexus, AMARE); test: as above; conditions: 14 days after application
Summary of the method: as §2

[19] = system: sicklepod (Cassia obtusifolia, CASOB); test: as above; conditions: 14 days after application
Summary of the method: as §2

[20] = system: velvetleaf (Abutilon theophrasti, ABUTH); test: as above; conditions: 14 days after application
Summary of the method: as §2

| Compound | phytotoxicity rating SORHA ([1]; 125 g ai/ha) | phytotoxicity rating SORHA ([1]; 500 g ai/ha) | phytotoxicity rating ECHCG ([2]; 125 g ai/ha) | phytotoxicity rating ECHCG ([2]; 500 g ai/ha) | phytotoxicity rating AMBEL ([3]; 125 g ai/ha) | phytotoxicity rating AMBEL ([3]; 500 g ai/ha) | phytotoxicity rating SETVI ([4]; 125 g ai/ha) | phytotoxicity rating SETVI ([4]; 500 g ai/ha) | phytotoxicity rating IPOHE ([5]; 125 g ai/ha) | phytotoxicity rating IPOHE ([5]; 500 g ai/ha) | phytotoxicity rating CHEAL ([6]; 125 g ai/ha) | phytotoxicity rating CHEAL ([6]; 500 g ai/ha) | phytotoxicity rating DIGSA ([7]; 125 g ai/ha) | phytotoxicity rating DIGSA ([7]; 500 g ai/ha) | phytotoxicity rating AMARE ([8]; 125 g ai/ha) | phytotoxicity rating AMARE ([8]; 500 g ai/ha) | phytotoxicity rating CASOB ([9]; 125 g ai/ha) | phytotoxicity rating CASOB ([9]; 500 g ai/ha) | phytotoxicity rating ABUTH ([10]; 125 g ai/ha) | phytotoxicity rating ABUTH ([10]; 500 g ai/ha) | further results |
| --- | --- | --- | --- | --- | --- | --- | --- | --- | --- | --- | --- | --- | --- | --- | --- | --- | --- | --- | --- | --- | --- |
| COc1nc(OC)nc(Oc2cc(-c3nn(C)c(C(F)(F)F)c3Cl)c(F)cc2Cl)n1 [Compound 1-8, 4-chloro-3-(4-chloro-2-fluoro-5-(4,6-dimethoxy-2-triazinyloxy)phenyl)-1-methyl-5-trifluoromethyl-1H-pyrazole] | 0 | 35 | 0 | 0 | 0 | 10 | 50 | 100 | 0 | 0 | 0 | 100 | 20 | 90 | 70 | 100 | 0 | 0 | 0 | 20 | AMBEL phytotoxicity rating (0-100) ([11]; 63 g al/ha): 0; AMBEL phytotoxicity rating (0-100) ([11]; 500 g al/ha): 10; SORHA phytotoxicity rating (0-100) ([12]; 63 g al/ha): 0; SORHA phytotoxicity rating (0-100) ([12]; 500 g al/ha): 10; ECHCG phytotoxicity rating (0-100) ([13]; 63 g al/ha): 0; ECHCG phytotoxicity rating (0-100) ([13]; 500 g al/ha): 0; SETVI phytotoxicity rating (0-100) ([14]; 63 g al/ha): 50; SETVI phytotoxicity rating (0-100) ([14]; 500 g al/ha): 20; IPOHE phytotoxicity rating (0-100) ([15]; 63 g al/ha): 10; IPOHE phytotoxicity rating (0-100) ([15]; 500 g al/ha): 80; CHEAL phytotoxicity rating (0-100) ([16]; 63 g al/ha): 0; CHEAL phytotoxicity rating (0-100) ([16]; 500 g al/ha): 95; DIGSA phytotoxicity rating (0-100) ([17]; 63 g al/ha): 0; DIGSA phytotoxicity rating (0-100) ([17]; 500 g al/ha): 20; AMARE phytotoxicity rating (0-100) ([18]; 63 g al/ha): 20; AMARE phytotoxicity rating (0-100) ([18]; 500 g al/ha): 100; CASOB phytotoxicity rating (0-100) ([19]; 63 g al/ha): 0; CASOB phytotoxicity rating (0-100) ([19]; 500 g al/ha): 10; ABUTH phytotoxicity rating (0-100) ([20]; 63 g al/ha): 0; ABUTH phytotoxicity rating (0-100) ([20]; 500 g al/ha): 35 |
| COc1nc(OC)nc(Oc2cc(-c3nc(C)n(C(F)F)c3Cl)c(F)cc2Cl)n1 [Compound 2-4, 5-chloro-4-(4-chloro-2-fluoro-5-(4,6-dimethoxy-2-triazinyloxy)phenyl)-1-difluoromethyl-2-methylimidazole] | 0 | 40 | 0 | 0 | 10 | 0 | 20 | 95 | 10 | 0 | 70 | 100 | 0 | 50 | 70 | 100 | 0 | 10 | 10 | 70 | AMBEL phytotoxicity rating (0-100) ([11]; 63 g al/ha): 0; AMBEL phytotoxicity rating (0-100) ([11]; 500 g al/ha): 0; SORHA phytotoxicity rating (0-100) ([12]; 63 g al/ha): 0; SORHA phytotoxicity rating (0-100) ([12]; 500 g al/ha): 50; ECHCG phytotoxicity rating (0-100) ([13]; 63 g al/ha): 0; ECHCG phytotoxicity rating (0-100) ([13]; 500 g al/ha): 0; SETVI phytotoxicity rating (0-100) ([14]; 63 g al/ha): 0; SETVI phytotoxicity rating (0-100) ([14]; 500 g al/ha): 50; IPOHE phytotoxicity rating (0-100) ([15]; 63 g al/ha): 0; IPOHE phytotoxicity rating (0-100) ([15]; 500 g al/ha): 75; CHEAL phytotoxicity rating (0-100) ([16]; 63 g al/ha): 0; CHEAL phytotoxicity rating (0-100) ([16]; 500 g al/ha): 70; DIGSA phytotoxicity rating (0-100) ([17]; 63 g al/ha): 0; DIGSA phytotoxicity rating (0-100) ([17]; 500 g al/ha): 10; AMARE phytotoxicity rating (0-100) ([18]; 63 g al/ha): 0; AMARE phytotoxicity rating (0-100) ([18]; 500 g al/ha): 90; CASOB phytotoxicity rating (0-100) ([19]; 63 g al/ha): 0; CASOB phytotoxicity rating (0-100) ([19]; 500 g al/ha): 0; ABUTH phytotoxicity rating (0-100) ([20]; 63 g al/ha): 0; ABUTH phytotoxicity rating (0-100) ([20]; 500 g al/ha): 80 |
